Results published in patent publication US9381142B2, “Olfactory adaptation and cross-adapting agents to reduce the perception of body odors” (Monell Chemical Senses Center, priority 2002, dated 2016).

Key:
[1] = tested on: male stress-derived axillary odor; assay: Cross-adaptation of male stress-derived axillary odor (odor panel, magnitude estimation of perceived intensity); assay type: in vivo, human; settings: for Magnitude of Reduction of Intensity of Male Stress-Derived Odor (MSDO), Males: male stress-derived odor perceived by men; for Magnitude of Reduction of Intensity of Male Stress-Derived Odor (MSDO), Females: male stress-derived odor perceived by women
Source text: (§1) The procedure relies upon an individual constantly sniffing an adapting agent, such as a fragrance, and occasionally a test odorant. Perceived intensity of the test odorant is obtained by using psychophysical, magnitude-estimation procedures. These perceived intensities are obtained every 30 seconds over the test period, and are then compared with baseline perceived intensities obtained before the individual began sniffing the adapting agent. Throughout the testing we observe adaptation to the adapting agent. Results during trials with an inserted test odorant, such as the axillary odor used here, are believed to be reasonably predictive. If the perceived intensity of the test odorant decreases during the test, then the adapting agent cross-adapts the test odorant and becomes a cross-adapting agent. If the cross-adapting agent is itself not offensive, then the cross-adapting agent becomes a candidate for use in formulations in consumer products to ameliorate malodors, such as axillary odor or fecal/urine odors, and odors related to the female menstrual cycle.
(§2) Collection of secretions: Apocrine secretions obtained under stressed conditions provided the axillary odor that was used as the test odorant to evaluate the effectiveness of various adapting agents. Secretions were obtained from males (ages 20 to 60 years) and females (ages 20 to 40 years) in good health. […] Volunteers prepared their axillae for collection of apocrine secretions by refraining from deodorant use for 3 days and shaving their axillae the morning of the collection day.
(§3) Volunteers were rested in a supine position. The axillary regions were washed with isopropanol-soaked pads and injected intradermally with 1:10,000 adrenalin (in physiologic saline). This injection stimulated the secretion of apocrine gland secretions, which were collected in 10 μl pipettes, passed into 0.25 ml Eppendorf tubes, and stored on ice (or frozen for longer storage). The amount of secretion collected varied greatly with the individual subject (≦10 μl). The apocrine secretions from each volunteer were combined by consecutively washing each Eppendorf tube with 2×300 μl of doubly distilled water. This aqueous-apocrine fluid was transferred to a 5 ml round-bottomed flask for hydrolysis. X-N. Zeng, J. J. Leyden, J. G. Brand, A. I. Spielman, K. J. McGinley, G. Preti, An Investigation of Human Apocrine Gland Secretion for Axillary Odor Precursors, 18 J. Chem. Ecol. 1039-1055 (1992); X-N. Zeng, J. J. Leyden, A. I. Spielman and G. Preti Analysis of the characteristic human female axillary odors: Qualitative comparison to males. 22 J. Chem. Ecol. 237-257 (1996).
(§4) Production of odor: To produce quantities of stress-derived axillary odor for testing purposes, we hydrolyzed the apocrine secretion. The aqueous solution was refluxed for 20 min with 0.5 ml, 5% aqueous sodium hydroxide under a stream of nitrogen. The mixture was allowed to cool to room temperature, and then it was cooled in ice prior to being acidified with 6 N HCl to pH 2. The resulting axillary odor developed in the reaction mixture upon acidification was used as the test odorant. The axillary odors generated by this in vitro technique are analogous to the malodors produced by stressed individuals.
Sixteen (16) individuals (8 of each gender) served on an odor panel. Subjects ranged in age from 22 to 55 years (mean 32.7±10.6 s.d.), were not pregnant (by verbal report), and were all non-smokers. All panel members were screened for adequate use of magnitude estimation (some people have difficulties maintaining a ratio scale, i.e., when an odorant is half as strong as the previous, these people fail to provide a number that is half the previous estimate) and further trained in its use during 2-3 training sessions. All 16 subjects were tested with samples of male malodor compared to each of the potential cross-adapting agents. […]

[2] = tested on: female stress-derived axillary odor; assay: Cross-adaptation of female stress-derived axillary odor (odor panel, magnitude estimation of perceived intensity); assay type: in vivo, human; settings: for Magnitude of Reduction of Intensity of Female Stress-Derived Odor (FSDO), Males: female stress-derived odor perceived by men; for Magnitude of Reduction of Intensity of Female Stress-Derived Odor (FSDO), Females: female stress-derived odor perceived by women
Source text: as §1, §2, §3, §4
A separate panel of 24 subjects (12 males and 12 females) tested samples of female stress-derived axillary odor with potential cross-adapting agents, some of which were not included in Example 1 above. Some of the subjects assessing the effectiveness of cross-adaptation of male stress-derived axillary odor were also used in the experiment with female secretions. However, these two experiments were treated as independent events. All panel members were screened for adequate use of magnitude estimation and further trained in its use during two to three training sessions. […]
Also: key: best: Best = Superior Cross-Adaptation; good: Good = Adequate Cross-Adaptation; poor: Poor = Ineffective Cross-Adaptation.

Compound | Magnitude of Reduction of Intensity of Male Stress-Derived Odor (MSDO), Males [1] | Magnitude of Reduction of Intensity of Male Stress-Derived Odor (MSDO), Females [1] | Magnitude of Reduction of Intensity of Female Stress-Derived Odor (FSDO), Males [2] | Magnitude of Reduction of Intensity of Female Stress-Derived Odor (FSDO), Females [2] | Magnitude of Reduction of Intensity of Male Stress-Derived Odor (MSDO), Males ([1]; listed as Z-isomer 3-methyl-2-pentenoic acid ethyl ester)
CC1CC(C)(c2ccccc2)OC(C)O1 (centres unmarked) [Floropal, 2,4,6-trimethyl-4-phenyl-1,3-dioxane] | good | poor | best | best | 
O=C1CCCCCCCCCCCCCCO1 [cpd Supra, oxacyclohexadecan-2-one] | poor | poor | good | good | 
CC(CO)CCCc1ccccc1 (centres unmarked) [Rosaphen ®, 2-methyl-5-phenylpentan-1-ol] | best | poor | good | poor | 
oxacyclohexadecen-2-one [GLOBALIDE ®] | good | poor | poor | good | 
O=C1CCCCCCCC=CCCCCCCO1 [Ambrettolide, oxacycloheptadec-10-en-2-one] | poor | poor | poor | good | 
CC/C=C\CCO [Cis-3-Hexenol, cis-3-hexenol-1-ol] | good | good | best | good | 
CCCCCC(C)=CC(=O)OCC (single isomer, unassigned) [E-, Z-isomers (3:1) of 3-methyl-2-octenoic acid ethyl esters, 3-methyl-2-octenoic acid ethyl esters] | best | best | best | best | 
CCOC(=O)C=C(C)CC (single isomer, unassigned) [Z-isomer of 3-methyl-2-pentenoic acid ethyl ester, 3-methyl-2-pentenoic acid ethyl ester] | best | poor | poor | poor | best
CCC(=CCC1CC=C(C)C1(C)C)CO (centres unmarked) [Sandranol ®, 2-ethyl-4-(2,2,3-trimethyl-3-cyclopenten-1-yl)-2-buten-1-ol] | good | poor | good | good | 
CC(C)=CCCC(C)CCO (centres unmarked) [Citronellol 950, 3,7-dimethyl-6-octen-1-ol] | good | good | good | good | 
CC(C)=CCCC(C)CCCC(C)C=O (centres unmarked) [FARENAL ®, 2,6,10-trimethyl-9-undecenal] | poor | poor | good | poor | 
CCCCCCCC1CCC(=O)O1 (centres unmarked) [C14 Aldehyde, gamma-undecalactone] | good | poor | good | good | 
CCCCCCOC(=O)c1ccccc1O [Hexyl Salicylate, hexyl-2-hydroxybenzoate] | poor | poor | poor | good | 
CCCCCCC(C=O)=Cc1ccccc1 [Hexylcinnamic Aldehyde, alpha-hexylcinnamaldehyde] | good | good | good | poor | 
l-carvone | best | best | good | best | 
C=CCOC(=O)COC1CCCCC1 [Isoananat, allyl cyclohexyloxyacetate] | best | poor | good | poor | 
CC(=O)OC1CCC(C(C)(C)C)CC1 (centres unmarked) [Oryclone Special, 4-tertbutylcyclohexyl acetate] | good | poor | best | poor | 
C=CCc1ccc(O)c(OC)c1 [Eugenol, 2-methoxy-1-hydroxy-4-allylbenzene] | best | poor | good | good | 
CC(C)=CC1CC(C)CCO1 (centres unmarked) [Rose Oxide hc, 4-methyl-2-(2-methyl-1-propenyl)tetrahydro-2H-pyran] | poor | good | good | good | 
CC(=O)O[C@@H]1C[C@H](C)CC[C@H]1C(C)C [Menthyl Acetate rf, 4-menthyl-3-yl acetate] | best | poor | good | good | 
CC(=O)C1(C)CC2=C(CCCC2(C)C)CC1C (centres unmarked) [ISO E SUPER ®, octahydro-2,3,8,8-tetramethyl-2-acetonaphthone] | poor | poor | poor | poor | 
OCCc1ccccc1 [Phenylethyl Alcohol, phenylethyl alcohol] | good | good | good | poor | 
